Test results as given in patent US12083096B2, “Composition containing artesunate” (priority 2016, dated 2024).

Tests used:
[1] = cited from earlier work
[2] = in vivo; cited from earlier work
[3] = cited from earlier work; remark: listed apart in the source
[4] = time to dissolve artesunate powder in aqueous base solution to a clear solution; assay type: physicochemical; conditions: 10 mg of artesunate with 5% sodium bicarbonate solution
Method: The formulation was prepared prior to use by: providing artesunate; providing a solution comprising an organic base; and adding the solution to artesunate to provide the formulation. For example, the injectable formulation of the present disclosure was prepared by mixing artesunate with an aqueous solution containing a base described herein. Without wishing to be bound by theory, artesunate becomes negatively charged and dissolved. The formulation is freshly prepared immediately before use to minimize instability. In some embodiments, the injectable formulation is prepared by adding a solution of the disclosed bases to artesunate powder. The solution is about 5% glucose, normal saline, or about 5% glucose saline solution. Then the mixture is mixed gently to provide a clear injectable solution.
The formulation of the present disclosure is very convenient to prepare.

time needed to dissolve [4]: five to seven
SMILES: C[C@H]1[C@H](OC(=O)CCC(=O)O)O[C@@H]2O[C@@]3(C)CC[C@H]4[C@H](C)CC[C@@H]1[C@@]24OO3 [artesunate]
solubility in organic solvents ([1]; organic solvents, such as acetone and methanol): soluble
solubility in water ([1]; water): slightly soluble
plasma half-life [2]: about 20 minutes
stability under basic and acidic conditions [3]: unstable
